# Measured values from US12492211B2, “Crystalline form of nitrogen-containing tricyclic compound and use thereof” (SUNSHINE LAKE PHARMA CO., LTD., priority 2019, dated 2025).
# Tests used:
# [1] = Stability test: light test (4500±500lx, UV); assay type: physicochemical; conditions: for Appearance / Purity (%): Light 4500±500lx, UV; for Purity (%): HPLC
# Protocol: (3) Light test: A batch of the test sample was taken into a flat weighing bottle, divided into ≤5 mm thick thin layer. The sample was placed in an opened light box (with UV) at the illuminance 4500±500lx, UV light ≥0.7 w/m^2 for 30 days. The sample was then sampled at day 5, day 13 and day 30, and the change of the sample's color was observed. The purity of the sample was detected by HPLC, and the structure of the sample was analyzed by X-ray powder diffraction, the change of X-ray powder diffraction in light test was […] as shown in FIG. 6.
# [2] = Hygroscopicity test by dynamic moisture adsorption (DVS); assay type: physicochemical; conditions: relative humidity of 80%
# Protocol: The description of the hygroscopic feature and the definition of the hygroscopic weight gain (Chinese Pharmacopoeia 2015 edition, Appendix 9103 Guidelines for Drug Hygroscopicity Tests, experimental conditions: 25° C.±1° C., 80%±2% relative humidity) are as described in the table below.
# An appropriate amount of the test sample was taken and the hygroscopicity of the test sample was tested by dynamic moisture adsorption device. […] That is, the crystal form A of the invention is not easily deliquescent under the influence of high humidity.
# [3] = Stability test: high-humidity test (25° C., RH 90%±5%); assay type: physicochemical; conditions: for Appearance / Purity (%): High-humidity 25° C., RH 90%±5%; for Purity (%): HPLC
# Protocol: (2) High-humidity test: A batch of the test sample was taken into a flat weighing bottle, divided into ≤5 mm thick thin layer. The sample was placed at 25° C., RH 90%±5% for 30 days. The sample was then sampled at day 5, day 10 and day 30, and the change of the sample's color was observed. The purity of the sample was detected by HPLC, and the structure of the sample was analyzed by X-ray powder diffraction, the change of X-ray powder diffraction in high humidity test was […] as shown in FIG. 5.
# [4] = Pharmacokinetic test in Beagle dogs, oral capsules; assay type: in vivo; conditions: 5 mg/kg oral
# Protocol: The crystal form A of compound having Formula (I) named 2-((5-cyclopropyl-3-(2,6-dichlorophenyl)isoxazol-4-yl)methoxy)-10H-spiro[benzo[6,7]oxepino[3,2-b]pyridine-11,1′-cyclopropane]-7-carboxylic acid was filled into capsules, which was for oral administration.
# 8-12 kg Male Beagle dogs were given 5 mg/kg test sample orally, with 3 animals in each group. Blood samples were taken at time points of 0.25, 0.5, 1.0, 2.0, 4.0, 6.0, 8.0, 12 and 24 h. Standard curve was plotted based on concentrations of the samples in a suitable range, the concentration of the test sample in the plasma sample was measured and quantified by AB SCIEX API4000 LC-MS/MS at MRM mode. Pharmacokinetic parameters were calculated according to drug concentration-time curve using a noncompartmental model by WinNonLin 6.3 software.
# [5] = Stability test: high-temperature test (60° C.); assay type: physicochemical; conditions: for Purity (%): HPLC
# Protocol: (1) High-temperature test: A batch of the test sample was taken into a flat weighing bottle, divided into ≤5 mm thick thin layer. The sample was placed at 60° C. for 30 days. The sample was then sampled at day 5, day 10 and day 30, and the change of the sample's color was observed. The purity of the sample was detected by HPLC, and the structure of the sample was analyzed by X-ray powder diffraction, the change of X-ray powder diffraction in high temperature test was […] as shown in FIG. 4.
# [6] = dog, plasma, male Beagle dogs, capsules
# [7] = High-temperature 60° C., 5 days
# [8] = High-temperature 60° C., 10 days
# [9] = High-temperature 60° C., 30 days
structure (smiles),measurement,setting,value
"O=C(O)c1ccc2c(c1)Oc1ccc(OCc3c(-c4c(Cl)cccc4Cl)noc3C3CC3)nc1C1(CC1)C2 [Crystal form A, 2-((5-cyclopropyl-3-(2,6-dichlorophenyl)isoxazol-4-yl)methoxy)-10H-spiro[benzo[6,7]oxepino[3,2-b]pyridine-11,1′-cyclopropane]-7-carboxylic acid]",Appearance,[1]; 5 days,White
same,Purity (%),[1]; 5 days,99.53%
same,Appearance,[1]; 13 days,White
same,Purity (%),[1]; 13 days,99.31%
same,Appearance,[1]; 30 days,White
same,Purity (%),[1]; 30 days,99.43%
same,"changes of appearance, chemical purity and crystal form","[1]; light, up to 30 days",no obvious changes
same,hygroscopic feature according to the criterion for the hygroscopic weight gain,[2],no or almost none hygroscopicity
same,weight gain after equilibrium,[2],less than 0.1%
same,Appearance,[3]; 5 days,White
same,Purity (%),[3]; 5 days,99.55%
same,Appearance,[3]; 10 days,White
same,Purity (%),[3]; 10 days,99.39%
same,Appearance,[3]; 30 days,White
same,Purity (%),[3]; 30 days,99.42%
same,"changes of appearance, chemical purity and crystal form","[3]; high-humidity, up to 30 days",no obvious changes
same,exposure in Beagle dogs,[4]; conclusion in words,relatively large exposure
same,AUC(0-t),[4]; [6],237 ng·h/mL
same,Cmax,[4]; [6],86 ng/mL
same,Tmax,"[4]; male Beagle dogs, capsules",40 min
same,Appearance,[5]; 0 days (initial sample),White
same,Purity (%),[5]; 0 days (initial sample),99.44%
same,Appearance,[5]; [7],White
same,Purity (%),[5]; [7],99.33%
same,Appearance,[5]; [8],White
same,Purity (%),[5]; [8],99.35%
same,Appearance,[5]; [9],White
same,Purity (%),[5]; [9],99.45%
same,"changes of appearance, chemical purity and crystal form","[5]; high-temperature, up to 30 days",no obvious changes
